Measurements: patent US20240174642A1, “HETEROCYCLIC COMPOUNDS CAPABLE OF ACTIVATING STING” (Boehringer Ingelheim International GmbH, priority 2022, published 2024)

Columns and labels:
STING = assay: Dog whole blood (dWB) assay, IFNb secretion by ELISA; assay type: cell-based; settings: 4 h incubation at 37° C., % control relative to cGAMP stimulated control, read-out: EC50, cytokine secretion in dog whole blood (dWB) culture system as determined by canine Interferon-beta (IFNb) ELISA
Experimental: In this assay, freshly collected canine blood is incubated with a STING agonist, and interferon beta levels in the supernatant are quantified by ELISA. […] In accordance with the invention, a combination of a high dDSF and low dWB is especially favorable.
For the detection of STING activation in physiological environment dog whole blood (dWB) was stimulated by the cyclic dinucleotide cGAMP or a test compound. Pathway activity was monitored by measuring the IFNb production.
Compounds were delivered as 10 mM DMSO solution, diluted and transferred by using an Echo acoustic dispenser to the 384well assay plate (Greiner #781182), pre-filled with 10 μl 1× HBSS in each well (10× HBSS (+Ca/+Mg), #14065-049, Gibco). Typically, 8 concentrations were used with the highest concentration at 10 μM in the final assay volume followed by approximately 1:4 dilution steps. DMSO concentration was set to 0.1% in the final assay volume. The 384-well assay plate contained 20 test compounds and DMSO in control and cGAMP standard wells. The dog whole blood was collected as Na-Citrate blood (e.g., 3.8% in Monovettes from Sarstedt) and kept at 4° C. overnight until use in the assay. 80 μl of the whole blood samples were transferred to each well of the 384-well assay plates filled with compound/1×HBSS. Blood plates were kept at room temperature for 60 minutes and continuous shaking with 450 rpm, covered with the lid, but not sealed. A 10× cGAMP assay solution was diluted from a 2 mM stock solution in 1×HBSS immediately before use at room temperature. 10 μl of the 10× cGAMP/HBSS were added to the high control wells, whereas HBSS only was added to all compound and low control wells. After covering assay plates with the lid, blood plates were kept for a 4 h incubation at 37° C. in the incubator, without shaking. For the detection of IFNb in dog plasma the ELISA Kit for Canine Interferon Beta (Biotrend #SEA222Ca) was used. Whole blood assay plates were centrifuged at 1000 g for 10 minutes at 8° C. 40 μl of supernatant was transferred with a 96 well pipetting robotics from the 384 well whole blood plate to the corresponding 96 well ELISA plate, pre-filled with […] assay diluent in each well. Plates were sealed with microplate seals and kept at 4° C. overnight again. ELISA plates were brought to room temperature, followed by a 1 h incubation at 37° C. in the incubator. Detection Reagent A working solution was prepared by diluting Detection Reagent A 1:100 in Assay Reagent A. Liquid was then removed from the 96 well ELISA plate to add 100 μL Detection Reagent A working solution to each well. ELISA plates were covered with the plate sealer and incubated for 1 hour at 37° C. in the incubator. The 1× Wash buffer was prepared by diluting the 30× Wash Buffer Concentrate in H2O. Detection Reagent B working solution was prepared by diluting Detection Reagent B 1:100 in Assay Reagent B. The ELISA plates were washed three times with 350 μl wash buffer and afterwards inverted and blotted against absorbent paper to remove any liquid. 100 μL of Detection Reagent B working solution was added to each well of the ELISA plates, which are then covered with the plate sealer and incubated for 30 minutes at 37° C. in the incubator. After incubation the ELISA assay plates were washed five times with 350 μl wash buffer and were again inverted and blotted against absorbent paper to remove any remaining liquid. 90 μL of TMB Substrate was added to each well of the ELISA plates, which were then covered with the plate sealer and incubated for 15 minutes at 37° C. in the incubator. The reaction was stopped by adding 50 μL stop solution and absorbance was measured at 450 nm immediately.
For data evaluation and calculation, % control calculation of each well was based on the mean of high (cGAMP stimulated control) and mean of low (unstimulated control) controls by using the following standard 4 parameter logistic regression formula: […]

dog STING (dSTING) = assay: Dog differential scanning fluorimetry (DSF) assay, thermal shift of dog STING protein; assay type: binding; settings: 100 μM compound, 3 μM recombinant dog STING (residues 149 to 375), 5× SYPRO Orange, 2% DMSO
Chain of dog STING (dSTING) (as listed by the source): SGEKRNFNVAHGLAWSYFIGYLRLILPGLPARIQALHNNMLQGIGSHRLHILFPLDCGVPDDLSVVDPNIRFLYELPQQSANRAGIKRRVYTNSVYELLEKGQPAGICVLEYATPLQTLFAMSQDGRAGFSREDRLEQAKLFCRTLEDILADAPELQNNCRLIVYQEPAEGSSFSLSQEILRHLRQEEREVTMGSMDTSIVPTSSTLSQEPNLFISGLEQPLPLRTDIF
Description: The protein used for the biophysical experiments was a recombinant dog STING protein comprising its cytosolic cGAMP binding ectodomain. A codon optimized DNA sequence (for expression in Escherichia coli) encoding amino acid residues 149 to 375 of dog STING was synthesized by GeneArt (Regensburg, Germany) and inserted into a pET17b E. coli expression vector. The protein construct encodes an N-terminal 8× His-tag followed by tobacco etch virus protease (TEV) cleavage site and the above STING gene sequence. The resulting protein sequence for the used dog STING protein (SEQ ID No. 1) is listed below:
For expression of the above recombinant dog STING, the construct was transformed into E. coli BL21 DE3 strain and grown in shake flasks in LB-medium at 15° C. Expression was induced by addition of isopropyl β-D-1-thiogalactopyranoside to a final concentration of 1 mM and cultures shaken overnight. Cell pellets were centrifuged and stored at −70° C. until further use. Protein was purified by cell thawing in lysis buffer (20 mM TRIS-HCl, pH 8, 500 mM NaCl, 1 mM DTT, 0.5 mg/ml lysozyme, Complete Protease Inhibitor (Roche) and DNase (Roche)), followed by metal affinity purification using Ni-NTA resins and elution buffer consisting of 20 mM TRIS-HCl, pH 8, 500 mM NaCl, 1 mM DTT, 300 mM imidazole. Cleavage of the His-Tag using TEV-protease took place during dialysis in size exclusion buffer (20 mM TRIS-HCl, pH 8, 100 mM NaCl, 1 mM DTT) over night. To further purify the target protein a reverse Nickel affinity column was used and the flow through was applied to a size exclusion chromatography. The peak fraction was collected and concentrated to 5 mg/mL.
Dye fluorescence is quenched in aqueous environment and increases upon association of the dye with the hydrophobic parts of the unfolding protein. […] The inflection point of the curve represents the “melting” temperature of the protein (Tm) which is calculated numerically using the Boltzmann equation.
The thermal stability of the dog STING protein was measured in assay buffer containing 20 mM Tris, 150 mM NaCl at pH7.5. The assay uses 384-Well qPCR Plates (Catalog #781358, BRAND), Microseal®‘B’ Adhesive Seals for PCR Plates (Catalog #MSB-1001, BIO-RAD) and was run on a CFX384 Real-Time System (Bio-Rad). A DMSO stock solution of SYPRO orange (SIGMA 55692-500UL) was prepared. Compound stock solutions (10 mM in DMSO) were diluted 1:2 in DMSO to an intermediate compound concentration of 5 mM and then further diluted 1:40 in assay buffer resulting in a compound concentration of 125 μM and 2.5% DMSO. Fluorescent dye stock solution (5000× SYPRO Orange) was then mixed with target protein and buffer to a concentration of 15 μM Protein and 25× SYPRO Orange. 2 μl of this protein-dye-mixture was added to 8 μl compound solution. Final volume was 10 μL. 3-6 well positions were used as negative control (protein with 2% DMSO). The plates were prepared for duplicate measurement and centrifuged for 2 min at 1000 g. In the measurement, 160 cycles of 0.5° C. were used (temperature ramp 15 s/cycle, 15° C. to 95° C.).
Final Assay concentrations for compound characterization were 100 μM compound, 3 μM target protein, 5× SYPRO Orange, and 2% DMSO in 10 μl. All dispensing steps were performed using a HamiltonStar pipetting robot (Hamilton).
Dissociation curves were processed in Bio-Rad CFX Manager. Peak type was set to “negative”. Compound codes for screen were assigned in the plate layout.
Two replicates of TM measurements were averaged, and the standard deviation was calculated. In cases of SD>1.5° C. the measurement was repeated.
The melting point (Tm) obtained for STING protein alone was subtracted from T obtained for protein incubated with ligand to generate ΔTm values.

## (1S,4R,5R)-2-(5-{2″,7-dimethyl-1H,2″H-[3,4″-biindazol]-1-yl}pyridin-2-yl)-2-azabicyclo[2.2.1]heptane-5-carboxylic acid and 1R,4S,5S)-2-(5-{2′,7-dimethyl-1H,2′H-[3,4′-biindazol]-1-yl}pyridin-2-yl)-2-azabicyclo[2.2.1]heptane-5-carboxylic acid [Example 5]
STING
  EC50: 529 nM
Dog STING (dSTING)
  Delta TM, interaction with dog STING as determined by DSF (dDSF): 33.5 °C
